Measurements as given in patent US20250129430A1, “HIGH ATP-AFFINITY PROTEIN AS THERAPEUTIC TARGET FOR INTRACTABLE CANCER MOLECULAR SUBTYPES AND INHIBITOR THEREOF” (VeraVerse Co., Ltd., priority 2021, published 2025).

What was measured:
Assay in all cases: Cell viability drug screen, 12-point dose-response AUC
Type in all cases: cell-based, human
SNU484 = SNU484 cells (SEM subtype); 72 hours
Procedure, shortened: (§1)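 Each cell line receives a twelve-point half-log titration of drug beginning 24 h after plating 5×10^3 cells per well. Following 72 h culture at 37 °C, luminescent signal is recorded and expressed versus vehicle. AUC is derived by the trapezoidal method.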

MKN74 = MKN74 cells; 72 hours
Procedure, shortened: (§2)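 Gastric cancer lines seeded 5×10^3 cells/well, dosed after 24 h with half-log 12-point compound dilutions (DMSO 0.5% control), then 72 h at 37 °C. Viability by luminescence, normalized to DMSO; AUC by trapezoidal method, averaged over repeats.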

SNU216 = SNU216 cells (non-SEM subtype); 72 hours
Procedure, shortened: as §2

SNU1750 = SNU1750 cells (SEM subtype); 72 hours
Procedure, shortened: as §1

SNU16 = SNU16 cells; 72 hours
Procedure, shortened: as §1

SNU620 = SNU620 cells; 72 hours
Procedure, shortened: as §1

YCC3 = YCC3 cells; 72 hours
Procedure, shortened: as §1

MKN28 = MKN28 cells; 72 hours
Procedure, shortened: as §1

NCC59 = NCC59 cells; 72 hours
Procedure, shortened: as §1

YCC2 = YCC2 cells; 72 hours
Procedure, shortened: as §1

SNU601 = SNU601 cells; 72 hours
Procedure, shortened: as §1

MKN45 = MKN45 cells (non-SEM subtype); 72 hours
Procedure, shortened: as §2

SNU719 = SNU719 cells; 72 hours
Procedure, shortened: as §2

OCUM1 = OCUM1 cells; 72 hours
Procedure, shortened: as §1

SNU1967 = SNU1967 cells; 72 hours
Procedure, shortened: as §1

KATO3 = KATO3 cells; 72 hours
Procedure, shortened: as §1

Hs746T = Hs746T cells (SEM subtype); 72 hours
Procedure, shortened: as §1

SNU1 = SNU1 cells; 72 hours
Procedure, shortened: as §1

SNU668 = SNU668 cells (SEM subtype); 72 hours
Procedure, shortened: as §1

NCI_N87 = NCI_N87 cells; 72 hours
Procedure, shortened: as §1

SNU638 = SNU638 cells; 72 hours
Procedure, shortened: as §1

YCC11 = YCC11 cells (SEM subtype); 72 hours
Procedure, shortened: as §1

MKN1 = MKN1 cells; 72 hours
Procedure, shortened: as §1

NCC24 = NCC24 cells; 72 hours
Procedure, shortened: as §1

NCC20 = NCC20 cells; 72 hours
Procedure, shortened: as §1

AGS = AGS cells (non-SEM subtype); 72 hours
Procedure, shortened: as §2

NCC19 = NCC19 cells; 72 hours
Procedure, shortened: as §1

SK4 = SK4 cells (SEM subtype); 72 hours
Procedure, shortened: as §1

FU97 = test system: FU97; set-up: Average Area Under the Viability Curve (AUC), AUC norm value: scale not given here; conditions: FU97 cells; 72 hours
Procedure, shortened: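 Trapezoidal AUC of a 12-point, DMSO-normalized dose-response curve. Luminescent viability was measured after 72 h of exposure at 37° C to half-log serial dilutions (0.5% DMSO control), dosed 24 h after plating FU97 cells at 5×10^3 per well.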

Compound | Average Area Under the Viability Curve (AUC), AUC norm value (SNU484) | Average Area Under the Viability Curve (AUC), AUC norm value (MKN74) | Average Area Under the Viability Curve (AUC), AUC norm value (SNU216) | Average Area Under the Viability Curve (AUC), AUC norm value (SNU1750) | Average Area Under the Viability Curve (AUC), AUC norm value (SNU16) | Average Area Under the Viability Curve (AUC), AUC norm value (SNU620) | Average Area Under the Viability Curve (AUC), AUC norm value (YCC3) | Average Area Under the Viability Curve (AUC), AUC norm value (MKN28) | Average Area Under the Viability Curve (AUC), AUC norm value (NCC59) | Average Area Under the Viability Curve (AUC), AUC norm value (YCC2) | Average Area Under the Viability Curve (AUC), AUC norm value (SNU601) | Average Area Under the Viability Curve (AUC), AUC norm value (MKN45) | Average Area Under the Viability Curve (AUC), AUC norm value (SNU719) | Average Area Under the Viability Curve (AUC), AUC norm value (OCUM1) | Average Area Under the Viability Curve (AUC), AUC norm value (SNU1967) | Average Area Under the Viability Curve (AUC), AUC norm value (KATO3) | Average Area Under the Viability Curve (AUC), AUC norm value (Hs746T) | Average Area Under the Viability Curve (AUC), AUC norm value (SNU1) | Average Area Under the Viability Curve (AUC), AUC norm value (SNU668) | Average Area Under the Viability Curve (AUC), AUC norm value (NCI_N87) | other results
O=C(/C=C/c1cccc(S(=O)(=O)Nc2ccccc2)c1)NO [Belinostat (PXD101), Belinostat] | 0.9966 | −0.1835 | −0.2541 | −0.902 | −1.577 | −1.0681 | 1.065 | −0.3952 | 2.683 | 0.1706 | 1.495 | 2.493 | 2.329 | −0.225 | −0.3122 | 0.7544 | 0.5598 | 0.1147 | 0.6908 | 0.02343 | Average Area Under the Viability Curve (AUC), AUC norm value (SNU638): −0.5011; Average Area Under the Viability Curve (AUC), AUC norm value (YCC11): −0.5556; Average Area Under the Viability Curve (AUC), AUC norm value (MKN1): 0.9981; Average Area Under the Viability Curve (AUC), AUC norm value (NCC24): −1.095; Average Area Under the Viability Curve (AUC), AUC norm value (NCC20): 0; Average Area Under the Viability Curve (AUC), AUC norm value (AGS): −0.9372; Average Area Under the Viability Curve (AUC), AUC norm value (NCC19): 1.206; Average Area Under the Viability Curve (AUC), AUC norm value (SK4): −0.3048; Average Area Under the Viability Curve (AUC), AUC norm value (FU97): −0.9726
Cn1cc(CNCC2CCN(c3ncc(C(=O)NO)cn3)CC2)c2ccccc21 [JNJ-26481585] | 0 | −0.06428 | 0.3424 | −0.8596 | −0.7883 | −1.2467 | 0.3561 | −0.5312 | 3.687 | −0.1018 | 1.501 | 2.743 | 3.527 | 0.02955 | −1.0365 | 0.3482 | 0.2906 | −0.984 | 1.486 | −0.2649 | Average Area Under the Viability Curve (AUC), AUC norm value (SNU638): 0.1995; Average Area Under the Viability Curve (AUC), AUC norm value (YCC11): 0.08841; Average Area Under the Viability Curve (AUC), AUC norm value (MKN1): 0.558; Average Area Under the Viability Curve (AUC), AUC norm value (NCC24): −1.592; Average Area Under the Viability Curve (AUC), AUC norm value (NCC20): −1.396; Average Area Under the Viability Curve (AUC), AUC norm value (AGS): −1.073; Average Area Under the Viability Curve (AUC), AUC norm value (NCC19): 0.3912; Average Area Under the Viability Curve (AUC), AUC norm value (SK4): −0.3258; Average Area Under the Viability Curve (AUC), AUC norm value (FU97): −0.6324
COc1cccc2c1C(=O)c1c(O)c3c(c(O)c1C2=O)C[C@@](O)(C(=O)CO)C[C@@H]3O[C@H]1C[C@H](N)[C@H](O)[C@H](C)O1 [Doxorubicin (Adriamycin), Doxorubicin] | −0.8418 | 1.522 | 0.7466 | −0.9576 | −0.0398 | −0.2009 | 2.8776 | 2.98 | 1.231 | 1.4121 | 4.481 | 2.505 | 4.66 | 0.6788 | −0.8787 | 7.9338 | −0.08449 | 0 | −0.3909 | 6.891 | Average Area Under the Viability Curve (AUC), AUC norm value (SNU638): −0.3342; Average Area Under the Viability Curve (AUC), AUC norm value (YCC11): −1.877; Average Area Under the Viability Curve (AUC), AUC norm value (MKN1): −0.2016; Average Area Under the Viability Curve (AUC), AUC norm value (NCC24): −0.6126; Average Area Under the Viability Curve (AUC), AUC norm value (NCC20): −0.4879; Average Area Under the Viability Curve (AUC), AUC norm value (AGS): −1.081; Average Area Under the Viability Curve (AUC), AUC norm value (NCC19): 2.867; Average Area Under the Viability Curve (AUC), AUC norm value (SK4): 0.213; Average Area Under the Viability Curve (AUC), AUC norm value (FU97): −1.237
COc1cc([C@@H]2c3cc4c(cc3[C@@H](O[C@@H]3O[C@@H]5CO[C@@H](c6cccs6)O[C@H]5[C@H](O)[C@H]3O)[C@H]3COC(=O)[C@H]23)OCO4)cc(OC)c1O [Teniposide (Vumon), Teniposide] | −1.211 | 0.3993 | 0.9296 | −0.5618 | −0.8192 | 0 | 2.1949 | 0.1008 | 1.59 | 0.249 | −1.094 | 1.933 | 2.899 | 1.001 | −0.7519 | 1.852 | 0.6261 | −0.3019 | −0.6175 | 2.319 | Average Area Under the Viability Curve (AUC), AUC norm value (SNU638): −0.3584; Average Area Under the Viability Curve (AUC), AUC norm value (YCC11): −1.342; Average Area Under the Viability Curve (AUC), AUC norm value (MKN1): −1.955; Average Area Under the Viability Curve (AUC), AUC norm value (NCC24): −0.5766; Average Area Under the Viability Curve (AUC), AUC norm value (NCC20): −0.8716; Average Area Under the Viability Curve (AUC), AUC norm value (AGS): −2.042; Average Area Under the Viability Curve (AUC), AUC norm value (NCC19): 2.415; Average Area Under the Viability Curve (AUC), AUC norm value (SK4): −0.2681; Average Area Under the Viability Curve (AUC), AUC norm value (FU97): 1.309
